From US20050009894A1 (Aventis Pharma S.A., priority 2001, published 2005)

Biological target: T1, human KDR enzyme (Homo sapiens, UniProt P35968)
T1 construct: The cytoplasmic domain of human KDR enzyme is cloned in the form of a GST fusion; GST; made in house; host or cells: SF21 insect cells (baculovirus, pFastBac)
Assay: Phosphorylation of the substrate PLCγ by the enzyme KDR in vitro (flashplate technique)
Type: biochemical
Conditions: Table VII, degrees of activity by IC50 range; read-out: Activity
Protocol: The inhibitory effect of the compounds is determined in a test of phosphorylation of a substrate by the enzyme KDR in vitro by the flasplate technique (96-well plate, NEN). The cytoplasmic domain of human KDR enzyme is cloned in the form of a GST fusion into the baculovirus expression vector pFastBac. The protein is expressed in the SF21 cells and purified to about 60% homogeneity.
The kinase activity of KDR is measured in 20 mM MOPS, 10 mM MgCl2, 10 mM MnCl2, 1 mM DTT, 2.5 mM EGTA, 10 mM β-glycerophosphate, pH 7.2 in the presence of 10 mM MgCl2, 100 μM Na3VO4, 1 mM NaF. 10 μl of the compound are added to 70 μl of kinase buffer containing 100 ng of KDR enzyme at 4° C. The reaction is initiated by adding 20 μl of solution containing 2 μg of substrate (fragment SH2-SH3 of PLCγ expressed in the form of a GST fusion protein), 2 μCi γ33P[ATP] and 2 μM cold ATP. After incubating for 1 h at 37° C., the reaction is quenched by adding 1 volume (100 μl) of 200 mM EDTA. The incubation buffer is removed and the wells are washed three times with 300 μl of PBS. The radioactivity is measured in each well using a Top Count NXT instrument (Packard).
Background noise is determined by measuring the radio-activity in wells in quadruplet containing radioactive ATP and the substrate alone.
An activity control is measured in wells in quadruplet containing all the reagents (γ33P-[ATP], KDR and the substrate PLCγ) and in the absence of compound.
The inhibition of the KDR activity with the compound of the invention is expressed as a percentage of inhibition of the control activity determined in the absence of compound.
The compound SU5614 (Calbiochem) (1 μM) is included in each plate as inhibition control.
The IC50 values for the compounds are calculated by plotting the dose-response curves. The IC50 corresponds to the concentration of compound that induces a 50% inhibition of the kinase activity.

T1 sequence (P35968 786-1356 limits assumed): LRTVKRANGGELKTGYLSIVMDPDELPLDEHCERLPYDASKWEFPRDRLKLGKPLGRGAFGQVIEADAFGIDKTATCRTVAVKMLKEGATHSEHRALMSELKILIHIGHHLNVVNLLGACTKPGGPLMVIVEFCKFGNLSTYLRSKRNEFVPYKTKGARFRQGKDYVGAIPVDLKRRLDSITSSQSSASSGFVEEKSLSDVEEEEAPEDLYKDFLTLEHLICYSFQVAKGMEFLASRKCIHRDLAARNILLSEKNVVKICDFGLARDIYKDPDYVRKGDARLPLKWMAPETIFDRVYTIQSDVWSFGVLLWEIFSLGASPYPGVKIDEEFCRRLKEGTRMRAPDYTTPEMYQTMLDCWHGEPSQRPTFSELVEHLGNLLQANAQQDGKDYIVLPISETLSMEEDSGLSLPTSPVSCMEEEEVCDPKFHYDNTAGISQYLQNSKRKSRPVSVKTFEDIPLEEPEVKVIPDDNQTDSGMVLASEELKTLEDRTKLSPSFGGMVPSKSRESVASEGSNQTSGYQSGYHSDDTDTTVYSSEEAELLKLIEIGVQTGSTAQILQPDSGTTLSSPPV

IC50	Compound
0.3 to 3 µM	NS(=O)(=O)c1ccc(CNC(=O)c2cccc3nc(-c4n[nH]c5ccccc45)[nH]c23)cc1 [Example 73, 2-(1H-Indazol-3-yl)-3H-benzoimidazole-4-carboxylic acid 4-sulfamoyl-benzylamide]
> 3 µM	CCOCCCNC(=O)c1cccc2nc(-c3n[nH]c4ccccc34)[nH]c12 [Example 74, 2-(1H-Indazol-3-yl)-3H-benzoimidazole-4-carboxylic acid (3-ethoxy-propyl)-amide]
> 3 µM	O=C(NCc1ccc(Br)cc1)c1cccc2nc(-c3n[nH]c4ccccc34)[nH]c12 [Example 75, 2-(1H-Indazol-3-yl)-3H-benzoimidazole-4-carboxylic acid 4-bromo-benzylamide]
> 3 µM	O=C(NCc1cccc2ccccc12)c1cccc2nc(-c3n[nH]c4ccccc34)[nH]c12 [Example 76, 2-(1H-Indazol-3-yl)-3H-benzoimidazole-4-carboxylic acid (naphthalen-1-ylmethyl)-amide]
> 3 µM	O=C(NCc1cccs1)c1cccc2nc(-c3n[nH]c4ccccc34)[nH]c12 [Example 77, 2-(1H-Indazol-3-yl)-3H-benzoimidazole-4-carboxylic acid (thiophen-2-ylmethyl)-amide]
> 3 µM	CN(C)c1ccc(CNC(=O)c2cccc3nc(-c4n[nH]c5ccccc45)[nH]c23)cc1 [Example 78, 2-(1H-Indazol-3-yl)-3H-benzoimidazole-4-carboxylic acid 4-dimethylamino-benzylamide]
> 3 µM	O=C(NCc1ccc([N+](=O)[O-])cc1)c1cccc2nc(-c3n[nH]c4ccccc34)[nH]c12 [Example 79, 2-(1H-Indazol-3-yl)-3H-benzoimidazole-4-carboxylic acid 4-nitro-benzylamide]
0.3 to 3 µM	O=C(NCc1cccnc1)c1cccc2nc(-c3n[nH]c4ccccc34)[nH]c12 [Example 80, 2-(1H-Indazol-3-yl)-3H-benzoimidazole-4-carboxylic acid (pyridin-3-ylmethyl)-amide]
> 3 µM	O=C(NCc1cccc(Br)c1)c1cccc2nc(-c3n[nH]c4ccccc34)[nH]c12 [Example 81, 2-(1H-Indazol-3-yl)-3H-benzoimidazole-4-carboxylic acid 3-bromo-benzylamide]
0.3 to 3 µM	COc1cccc(CNC(=O)c2cccc3nc(-c4n[nH]c5ccccc45)[nH]c23)c1 [Example 82, 2-(1H-Indazol-3-yl)-3H-benzoimidazole-4-carboxylic acid 3-methoxy-benzylamide]
> 3 µM	O=C(NCc1csc2ccccc12)c1cccc2nc(-c3n[nH]c4ccccc34)[nH]c12 [Example 83, 2-(1H-Indazol-3-yl)-3H-benzoimidazole-4-carboxylic acid (benzo[b]thiophen-3-ylmethyl)-amide]
> 3 µM	O=C(NCc1ccc(Oc2ccccc2)cc1)c1cccc2nc(-c3n[nH]c4ccccc34)[nH]c12 [Example 84, 2-(1H-Indazol-3-yl)-3H-benzoimidazole-4-carboxylic acid 4-phenoxy-benzylamide]
> 3 µM	O=C(NCc1cccc(OC(F)(F)F)c1)c1cccc2nc(-c3n[nH]c4ccccc34)[nH]c12 [Example 85, 2-(1H-Indazol-3-yl)-3H-benzoimidazole-4-carboxylic acid 3-trifluoromethoxy-benzylamide]
> 3 µM	O=C(NCc1ccc(Cl)nc1)c1cccc2nc(-c3n[nH]c4ccccc34)[nH]c12 [Example 86, 2-(1H-Indazol-3-yl)-3H-benzoimidazole-4-carboxylic acid (6-chloro-pyridin-3-ylmethyl)-amide]
> 3 µM	O=C(NCc1ccc2c(c1)CCO2)c1cccc2nc(-c3n[nH]c4ccccc34)[nH]c12 [Example 87, 2-(1H-Indazol-3-yl)-3H-benzoimidazole-4-carboxylic acid (2,3-dihydro-benzofuran-5-ylmethyl)-amide]

The next lines start with the compound.

Compound	IC50
CC(=O)Nc1cccc(OCCCNC(=O)c2ccc3[nH]c(-c4n[nH]c5ccccc45)nc3c2)c1 [Example 55, 2-(1H-Indazol-3-yl)-1H-benzoimidazole-5-carboxylic acid [3-(3-acetylamino-phenoxy)-propyl]-amide]	0.3 to 3 µM
O=C(NCc1ccc(Cl)nc1)c1ccc2[nH]c(-c3n[nH]c4ccccc34)nc2c1 [Example 56, 2-(1H-Indazol-3-yl)-1H-benzoimidazole-5-carboxylic acid (6-chloro-pyridin-3-ylmethyl)-amide]	< 0.3 µM
O=C(NCc1ccc(-c2cccs2)s1)c1ccc2[nH]c(-c3n[nH]c4ccccc34)nc2c1 [Example 57, 2-(1H-Indazol-3-yl)-1H-benzoimidazole-5-carboxylic acid ([2,2′]bithiophenyl-5-ylmethyl)-amide]	0.3 to 3 µM
O=C(NCc1ccc2c(c1)CCO2)c1ccc2[nH]c(-c3n[nH]c4ccccc34)nc2c1 [Example 58, 2-(1H-Indazol-3-yl)-1H-benzoimidazole-5-carboxylic acid (2,3-dihydro-benzofuran-5-ylmethyl)-amide]	< 0.3 µM
N#Cc1ccc(CNC(=O)c2ccc3[nH]c(-c4n[nH]c5ccccc45)nc3c2)cc1 [Example 59, 2-(1H-Indazol-3-yl)-1H-benzoimidazole-5-carboxylic acid 4-cyano-benzylamide]	0.3 to 3 µM
O=C(NCc1csc2ccc(Cl)cc12)c1ccc2[nH]c(-c3n[nH]c4ccccc34)nc2c1 [Example 60, 2-(1H-Indazol-3-yl)-1H-benzoimidazole-5-carboxylic acid (5-chloro-benzo[b]thiophen-3-ylmethyl)-amide]	> 3 µM
O=C(NCc1cccc(C(F)(F)F)c1)c1ccc2[nH]c(-c3n[nH]c4ccccc34)nc2c1 [Example 61, 2-(1H-Indazol-3-yl)-1H-benzoimidazole-5-carboxylic acid 3-trifluoromethyl-benzylamide]	> 3 µM
CSc1ccccc1CNC(=O)c1ccc2[nH]c(-c3n[nH]c4ccccc34)nc2c1 [Example 62, 2-(1H-Indazol-3-yl)-1H-benzoimidazole-5-carboxylic acid 2-methylsulfanyl-benzylamide]	< 0.3 µM
O=C(NCc1csc2ccccc12)c1ccc2[nH]c(-c3n[nH]c4ccccc34)nc2c1 [Example 63, 2-(1H-Indazol-3-yl)-1H-benzoimidazole-5-carboxylic acid (benzo[b]thiophen-3-ylmethyl)-amide]	< 0.3 µM
O=C(NCC1CCOCC1)c1ccc2[nH]c(-c3n[nH]c4ccccc34)nc2c1 [Example 64, 2-(1H-Indazol-3-yl)-1H-benzoimidazole-5-carboxylic acid (tetrahydro-pyran-4-ylmethyl)-amide]	0.3 to 3 µM
O=C(NCC1COc2ccccc2O1)c1ccc2[nH]c(-c3n[nH]c4ccccc34)nc2c1 (stereo not drawn) [Example 65, 2-(1H-Indazol-3-yl)-1H-benzoimidazole-5-carboxylic acid (2,3-dihydro-benzo[1,4]dioxin-2-ylmethyl)-amide]	0.3 to 3 µM
O=C(NCc1ccoc1)c1ccc2[nH]c(-c3n[nH]c4ccccc34)nc2c1 [Example 66, 2-(1H-Indazol-3-yl)-1H-benzoimidazole-5-carboxylic acid (furan-3-ylmethyl)-amide]	0.3 to 3 µM
O=C(NCc1ccccc1[N+](=O)[O-])c1ccc2[nH]c(-c3n[nH]c4ccccc34)nc2c1 [Example 67, 2-(1H-Indazol-3-yl)-1H-benzoimidazole-5-carboxylic acid 2-nitro-benzylamide]	0.3 to 3 µM
O=C(NCc1ccsc1)c1ccc2[nH]c(-c3n[nH]c4ccccc34)nc2c1 [Example 68, 2-(1H-Indazol-3-yl)-1H-benzoimidazole-5-carboxylic acid (thiophen-3-ylmethyl)-amide]	0.3 to 3 µM
Cc1cc(C)cc(CNC(=O)c2ccc3[nH]c(-c4n[nH]c5ccccc45)nc3c2)c1 [Example 69, 2-(1H-Indazol-3-yl)-1H-benzoimidazole-5-carboxylic acid 3,5-dimethyl-benzylamide]	0.3 to 3 µM
Cn1c(CNC(=O)c2ccc3[nH]c(-c4n[nH]c5ccccc45)nc3c2)nc2ccccc21 [Example 70, 2-(1H-Indazol-3-yl)-1H-benzoimidazole-5-carboxylic acid (1-methyl-1H-benzoimidazol-2-ylmethyl)-amide]	0.3 to 3 µM
Cc1cccc(CNC(=O)c2ccc3[nH]c(-c4n[nH]c5ccccc45)nc3c2)c1 [Example 71, 2-(1H-Indazol-3-yl)-1H-benzoimidazole-5-carboxylic acid 3-methyl-benzylamide]	< 0.3 µM
O=C(NCc1cccc(Cl)c1)c1ccc2[nH]c(-c3n[nH]c4ccccc34)nc2c1 [Example 72, 2-(1H-Indazol-3-yl)-1H-benzoimidazole-5-carboxylic acid 3-chloro-benzylamide]	< 0.3 µM
